Experiment [1] deals with neonatal rat CMs (heart cells). Description: Heart cell attachment on peptide-modified Az-chitosan coated coverslips (brightfield cell counts). Conditions: coated glass coverslips, 1, 3 and 5 days of incubation, FIG. 1. It counts as cell-based, rat (Sprague-Dawley). How it is done:
Neonatal (1 to 2 day-old) Sprague-Dawley rats were euthanized according to the procedure approved by the University of Toronto Committee on Animal Care. […] The supernatant from 5 collagenase digests of the tissues was collected and centrifuged at 750 rpm (94 g) for 4 min, resuspended in culture medium and pre-plated into T75 flasks (Falcon) for 1 hour to separate the non-adherent cells (enriched CMs) from the adherent cells (non-myocytes). The enriched CMs were used in the studies. The CM culture medium consisted of Dulbecco's Modified Eagle Medium (DMEM) with 4.5 g/L glucose, 4 mM L-glutamine, 10% certified fetal bovine serum (FBS), 100 U/mL penicillin, 100 μg/mL streptomycin, and 10 mM 4-2-hydroxyethyl-1-piperazineethanesulfonic acid buffer (HEPES, Gibco/Invitrogen).
The surfaces used for microscopy analysis were created on circular 12 mm diameter glass coverslips (VWR). These were plasma treated (WS-400BZ-6NPP/Lite, Laurell Technologies) for 30 s. […]
The day before cells were ready to be seeded, the surfaces in the 12-well plates were sterilized by germicidal UV illumination overnight. […]
Brightfield images were taken with 10× magnification of surfaces with cells (N=3) to visualize the morphology and cell attachment (IX81, Olympus). […] The number of cells was then counted using the cell counting plug-in on ImageJ (NIH version 1.36b).

The subject of experiment [2] is neonatal rat CMs (heart cells). Description: Preliminary 3D cell encapsulation studies in hydrogels. It counts as cell-based, rat (Sprague-Dawley). Conditions: encapsulated, 1 to 4 days of 3D culture. How it is done: The lyophilized form of the peptide-modified Az-chitosan was dissolved in sterile 0.9% saline at 12 mg/mL. CMs (2.5×10^6) were suspended in 15 μL of CM culture media with 30% serum for 15 minutes on ice. These cells were then suspended in 35 μL of the hydrogel and crosslinked in the transwell inserts of the 96 well plates. The cells were cultivated in the CM culture medium with 10% FBS for up to 4 days.

Experiment [3] has as its system Rat neonatal cardiomyocytes. Kind of experiment: ATP assay (CellTiter-Glo) in serum-starved cardiomyocytes. Conditions: 1 d. It counts as cell-based. How it is done: Rat neonatal cardiomyocytes were incubated with PBS (control), 500 μM QHREDGS, scrambled QHREDGS peptide, GRGDSP peptide or 400 nM ang 1 or ang2 in DMEM/0.5% BSA/cytosine-β-D-arabinofuranoside (37° C., 5% CO2, 1 d). ATP levels were quantified using the CellTiter-Glo Luminescent Assay (Promega) as per manufacturer's instructions (N=6/group). Luminescence was measured using a Wallac 1420 microplate reader.

Experiment [4] has as its system human iPS cells 0901B. Description: iPS colony formation / cloning efficiency after complete dissociation at clonal density. It counts as cell-based. Conditions: 50 μM, trypsinized, clonal density, one week, FIG. 13B. How it is done:
(§1) The human iPS cells (BJ1D and 0901B) were obtained from the Ontario iPSC Facility and used following the hiPS cell research guidelines of the University of Toronto as described by Hotta et al. Nat. Protoc. 4, 1828-1844 (2009)), unless specified otherwise. Cells were cultured on a feeder layer of MEF cells (Mount Sinai Hospital Toronto, inactivated with 10 μg/ml mitomycin C and seeded at 1.8×10^5 per 3.5 cm dish). For single cell cultures, hiPS cell colonies were dissociated in 0.25% Trypsin-EDTA (Invitrogen) for 5 min, followed by trituration with a pipette. To ensure a single-cell suspension, the dissociated cells were passed through a 40 μm cell strainer (BD Falcon) and seeded onto MEF plates at 10 cells/ml, 10 cm plates. Cells were allowed to grow for 7 days and the total number of colonies was counted. In the treated groups, QHREDGS (Biomatik) or DGQESHR (Biomatik) dissolved in PBS (Lonza), were added at the reported concentrations to culture media at the onset of the first treatment passage and replenished with each media change. Media was changed by 100% every day. Peptides and controls were included during dissociation and passaging. Cells were analyzed after 5 passages in continuous treatment with 50 μM QHREDGS, 50 μM DGQESHR, or PBS, unless specified otherwise.
(§2) iPS cells, BJ1D or 0901B were treated with 50 μM of QHREDGS peptide, or 50 μM DGQESHR scrambled peptide in PBS with a PBS treated control for five passages as a preparation for passage by trypsin. Cells were trypsinized and plated at a clonal density of 10 cells/ml for one week and the number of colonies were counted.
(§3) After 5 passages in pre-treatment with 50 μM QHREDGS, or controls and complete dissociation (trypsinized), human iPS cells, BJ1D or 0901B cells, were plated on a mouse embryonic fibroblast (MEF) feeder layer at low density (100 cells/plate, 10 cm plate) in maintenance medium containing 50 μM QHREDGS, PBS, or 50 μM DGQESHR scrambled peptide. After one-week in culture, untreated or DGQESHR (scrambled peptide) treated groups generated few colonies, whereas QHREDGS treated groups for both BJ1D or 0901B cells produced many large colonies (˜15 times more than the controls) (see FIG. 13A/B, respectively). The colonies were positive for Oct4, a marker for the undifferentiated state. The cloning efficiency, based on ratio of Oct4+ colonies formed per initially seeded human iPS cells, was 27+/−7.1% and 2.5+/−0.6% for BJ1D and 48+/−9.4% and 22.3+/−1.9 for 0901B in the presence and absence of QHREDGS, respectively. […] Thus, treatment with QHREDGS supports single-cell culture of human iPS cells through the promotion of colony formation.

In experiment [5] the test system is human iPS cells BJ1D. The experiment is described as above. It counts as cell-based. The settings on record: 50 μM, trypsinized, clonal density, one week, FIG. 13A. How it is done:
as §1, §2, §3

Experiment [6] has as its system neonatal rat cardiomyocytes. Description: Cardiomyocyte encapsulation in chitosan hydrogels, live/dead staining after 6 days. In kind it is cell-based. The settings on record: peptide conjugated to Az-chitosan hydrogel, in vitro cultivation. How it is done: The lyophilized form of the peptide-modified Az-chitosan (Az-chitosan-QHREDGS or Az-chitosan-RGDS) was dissolved in sterile 0.9% PBS at 12 mg/mL. Cardiomyocytes (2.5×10^6) were suspended in 15 μL 30% FBS-containing culture medium for 15 min. on ice. These cells were further suspended in 35 μL of the hydrogel. This mixture was placed on a 12 mm diameter glass coverslip, which was placed on a UV lamp (UVP, 365 nm, 1 mW/cm^2 at 3″ distance, 115 V, 60 Hz, 0.16 Amp) and exposed to UV light for 5 min. The samples were then transferred to a 12 well plate and supplemented with 2 mL of warm cardiomyocyte culture media.
Live/dead staining was performed using 5-carboxyfluorescein diacetate acetoxymethly ester, which stains live cells green, and propidium iodide, which stains dead cells red according to the manufacturer's instruction (Invitrogen). Three sets of surfaces were analyzed for each sample type.

Experiment [7] deals with Rat neonatal cardiomyocytes. Kind of experiment: Hydrogen peroxide treatment, Trypan blue viability (monolayer). In kind it is cell-based. The settings on record: 200 nM ang 1 1.5 hr, 100 μM H2O2 10 min, FIG. 5A. How it is done:
Rat neonatal cardiomyocytes were incubated for 1.5 hr with 500 μM QHREDGS, scrambled (scram) QHREDGS peptide (DGQESHR), or PBS control (PBS); 200 nM ang 1 or its matched buffer control [0.1% bovine serum albumin (BSA) in PBS] in the culture medium. The culture medium consisted of Dulbecco's Modified Eagle's Medium (DMEM) with 0.5% BSA and cytosine-β-D-arabinofuranoside (anti-proliferative). Reactive oxygen species were increased by addition of 100 μM H2O2 for 10 min (37° C., 5% CO2) (N=6/group). Cell viability was measured using a Trypan blue stain. Trypan blue dye is impermeable to viable cells, but enters dead/damaged cells with impaired membrane integrity, staining cells blue.

No end group written: not given here.

Consider “Az-chitosan-DGQESHR: scrambled QHREDGS peptide conjugated to Az-chitosan (also: conjugated to Az-chitosan, site not given here) [reference compound]”, for which the “cell adhesion / cell attachment to coated surface” value in experiment [1] is given as “did not have the same attachment results”. The “heart cell survival and elongation in 3D hydrogel” value in experiment [2] is “a large number of dead round cells”.
Take “DGQESHR [scrambled QHREDGS peptide control, reference compound]”: in experiment [3] (500 μM peptide), the “cardiac myocyte ATP levels” value is reported as “no such effect”. Also, the number of colonies result in experiment [4] and in experiment [5] was “few colonies” in each case.
“GRGDSP [RGD-based peptides, reference compound]”: the “cardiac myocyte ATP levels” value in experiment [3] (500 μM peptide) was “no such effect”.
Regarding QHREDGS (angiopoietin 1 peptide), the “syncytium formation of encapsulated cardiomyocytes” value in experiment [6] is recorded as “formation of a dense syncytium”.

B1: ang2: ang2 protein comparator in the ATP assay (protein, UniProt O15123 19-496, looked up)
Angiopoietin-2: YNNFRKSMDSIGKKQYQVQHGSCSYTFLLPEMDNCRSSSSPYVSNAVQRDAPLEYDDSVQRLQVLENIMENNTQWLMKLENYIQDNMKKEMVEIQQNAVQNQTAVMIEIGTNLLNQTAEQTRKLTDVEAQVLNQTTRLELQLLEHSLSTNKLEKQILDQTSEINKLQDKNSFLEKKVLAMEDKHIIQLQSIKEEKDQLQVLVSKQNSIIEELEKKIVTATVNNSVLQKQQHDLMETVNNLLTMMSTSNSAKDPTVAKEEQISFRDCAEVFKSGHTTNGIYTLTFPNSTEEIKAYCDMEAGGGGWTIIQRREDGSVDFQRTWKEYKVGFGNPSGEYWLGNEFVSQLTNQQRYVLKIHLKDWEGNEAYSLYEHFYLSSEELNYRIHLKGLTGTAGKISSISQPGNDFSTKDGDNDKCICKCSQMLTGGWWFDACGPSNLNGMYYPQRQNTNKFNGIKWYYWKGSGYSLKATTMMIRPADF
For B1, the “cardiac myocyte ATP levels” value in experiment [3] (400 nM protein) is “no such effect”.

B2: Angiopoietin 1 (protein, UniProt Q15389 1-498, looked up)
chain: MTVFLSFAFLAAILTHIGCSNQRRSPENSGRRYNRIQHGQCAYTFILPEHDGNCRESTTDQYNTNALQRDAPHVEPDFSSQKLQHLEHVMENYTQWLQKLENYIVENMKSEMAQIQQNAVQNHTATMLEIGTSLLSQTAEQTRKLTDVETQVLNQTSRLEIQLLENSLSTYKLEKQLLQQTNEILKIHEKNSLLEHKILEMEGKHKEELDTLKEEKENLQGLVTRQTYIIQELEKQLNRATTNNSVLQKQQLELMDTVHNLVNLCTKEGVLLKGGKREEEKPFRDCADVYQAGFNKSGIYTIYINNMPEPKKVFCNMDVNGGGWTVIQHREDGSLDFQRGWKEYKMGFGNPSGEYWLGNEFIFAITSQRQYMLRIELMDWEGNRAYSQYDRFHIGNEKQNYRLYLKGHTGTAGKQSSLILHGADFSTKDADNDNCMCKCALMLTGGWWFDACGPSNLNGMFYTAGQNHGKLNGIKWHYFKGPSYSLRSTTMMIRPLDF
modifications: full-length
notes: full length parent protein of QHREDGS
For B2, in experiment [7], the “cardiomyocyte viability after exposure to H2O2” value is given as “maintain cardiomyocyte viability”. Further, the “cardiac myocyte ATP levels” value in experiment [3] (400 nM protein) is given as “substantially increased”.

The values above are taken from patent publication US9096643B2, “Cell-protective peptides and uses thereof” (priority 2010, dated 2015).
